Data as given in patent publication US20040121965A1, “Method of treating resistant tumors” (Wyeth Holdings Corporation, priority 2002, published 2004).
Like-named read-outs stand apart in the source and are kept apart here. Square brackets hold non-standard residues; d marks the D form. Peptide text beside a SMILES is read from it. * marks the point of attachment. X1 = COC1=CC(=O)N(C(=O)[C@@H](O*)C(C)C)[C@H]1Cc1ccccc1; NMe2Val = CC(C)[C@@H](C(=O)*)N(C)C; NMeV = CN[C@H](C(=O)O)C(C)C

Experiments:
KB-8-5 (MDR1+) = experiment: Cell survival assay (SRB), KB-8-5 (MDR1+); settings: for IC50: Homo sapiens
KB-HTI-4.0 = experiment: Cell survival assay, KB-3-1 line made resistant to Example 129 (KB-HTI-4.0); assay type: cell-based, human
Source text: Cells lines with previously known mechanisms of resistance. […] Res. 8: 207-218,1996); KB-3-1 (parental derived from an epidermoid carcinoma), KB-8.5, KB-V1 (Akiyama S-I, Fojo A, Hanover J A, Pastan I, Gottesman M M. Isolation and genetic characterization of human KB cell lines resistant to multiple drugs. Somatic Cell Mol. Gen., 11: 117-126,1985; Shen D-W, Cardarelli C, Hwang J, Cornwell M, Richert N, Ishii S, Pastan I, Gottesman MM. […] J. Biol. Chem., 261: 7762-7770, 1986); and HL-60 (parental derived from human leukemia) and HL60/AR (McGrath T., Center M. S. Adriamycin resistance in HL60 cells in the absence of detectable P-glycoprotein. Biochem. Res. Commun., 145:1171-1176,1987); A549 and A549.EpoB40 (He L., Yang C.-P.H., Horwitz S. B. Mutations in p-tubulin map to domains involved in regulation of microtubule stability in epothilone-resistant cell lines. Molecular Cancer Therapeutics. 1: 3-10, 2001). HCT-15 human colon carcinoma and DLD-1 human colon carcinoma are obtained from American Tissue Culture Collection. The MX-1W carcinoma is a Wyeth variant orginally obtained as MX-1 breast carcinoma from the National Cancer Institute. Cell lines selected for resistance to Representative Example 129. KB-3-1 cells are selected for resistance to Example 129 by chronically exposing cells to increasing concentrations of Example 129.
2.2. Cell Survival Assay: Standard Pharmacological Test Procedure. The concentration of candidate inhibitor required to inhibit 50% of cell growth (IC50) is done according to previously reported methods. […] Compounds are serially diluted into media as 2× stocks and 100 μl added to cells in duplicate. Compounds are incubated with cells for 3 days. At the end of the incubation period the sulforhodamine B (SRB) assay, which measures protein content as an assessment of cell survival, is performed as described previously (Skehan P, Storeng R, Scudiero D, Monks A, McMahon J, Vistica D, Warren J T, Bokesch H, Kenney S, Boyd MR. New calorimetric cytotoxicity assay for anticancer-drug screening. J Natl Cancer Inst 1990 Jul 4;82(13):1107-12) with some modification as follows. For KB-3-1 cells with 20% FCS, media is gently decanted and replaced with 200 μl of serum-free media mixed with cold 50% TCA for a final concentration of 10% TCA. The plates are incubated for 1 hr at 4° C., followed by washing 5 times in cold distilled water, then air dried overnight. The fixed cells are stained for 10 min with 80 μl of 0.04% SRB solution prepared in 1% glacial acetic acid. Stain is discarded and plates washed 5 times in 1% glacial acetic acid, then air-dried until completely dry. Stained cell product is dissolved in 150 μl of 10 mM Trizma Base and placed on a shaker for 20 minutes until fully dissolved. Absorbance is read on a Victor V multi-label plate reader (Perkin Elmer, Gaithersburg, Md.).
Cells are selected for resistance to Example 129 to understand the frequency and mechanistic basis of resistance.

KB-3-1 = experiment: Cell survival assay (SRB), KB-3-1; assay type: cell-based, human
In short: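 SRB protein stain as survival read-out; IC50 = conc. giving 50% growth inhibition. Compound serially diluted, duplicate wells, 3 d exposure; TCA fixation (10% final, 1 h, 4 °C), 0.04% SRB/1% acetic acid 10 min, solubilised in 10 mM Trizma Base, A read.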

KB-V1 (MDR1++) = experiment: Cell survival assay (SRB), KB-V1 (MDR1++); settings: for IC50: Homo sapiens
[1] = Homo sapiens, KB-3-1 line made resistant to Example 129, Table 8, read-out: KB-HTI-4.0 IC50
[2] = Homo sapiens, KB-3-1 parental, Table 8, read-out: KB-3-1 IC50
[3] = KB-3-1 line made resistant to Example 129, Table 8, read-out: KB-HTI-4.0 IC50
[4] = KB-3-1 parental, Table 8, read-out: KB-3-1 IC50
[5] = MDR1, read-out: In vitro IC50 (nM) KB85
[6] = Homo sapiens, KB 3-1, KB-3-1 cells (paclitaxel-sensitive parent), read-out: In vitro IC50 (nM) KB-3-1
[7] = read-out: In vitro IC50 (nM) KBV1

Molecule | IC50 (KB-HTI-4.0; [1]) [nM] | (RR) relative resistance vs. parental cells (KB-HTI-4.0; KB-HTI-4.0 vs KB-3-1) | IC50 (KB-3-1; [2]) [nM] | Ratio KB85/KB (KB-8-5 (MDR1+)) | IC50 (KB-8-5 (MDR1+); [5]) [nM] | IC50 (KB-3-1; [6]) [nM] | Ratio KBV1/KB (KB-V1 (MDR1++)) | IC50 (KB-V1 (MDR1++); [7]) [nM] | other results
CCC1=C[C@@H]2CN(C1)Cc1c([nH]c3ccccc13)[C@@](C(=O)OC)(c1cc3c(cc1OC)N(C)[C@H]1[C@@](O)(C(=O)OC)[C@H](OC(C)=O)[C@]4(CC)C=CCN5CC[C@]31[C@@H]54)C2 [vinorelbine, reference compound] | 8.64 ± 2.94 | (7) | 1.22 ± 0.33 | – | – | – | – | – | IC50 (KB-8-5 (MDR1+); MDR1, read-out: KB-8-5 (MDR1+) IC50, nM (N)): 132 nM; RR, relative resistance (KB-8-5 (MDR1+); IC50 KB-8-5 / IC50 KB-3-1, Table 3): 38; resistance of KB-8-5 cells (KB-8-5 (MDR1+); KB-8-5 (KB-85) vs KB-3-1, in vitro): 38 fold; IC50 (KB-3-1; Homo sapiens, KB-3-1 parental, Table 3, read-out: KB-3-1 IC50, nM (N)): 3.5 nM; IC50 (KB-V1 (MDR1++); read-out: KB-V1 (MDR1++) IC50, nM (N)): > 3000 nM; RR, relative resistance (KB-V1 (MDR1++); IC50 KB-V1 / IC50 KB-3-1, Table 3): >857
C(=N\NC1=NCCN1)/c1c2ccccc2c(/C=N/NC2=NCCN2)c2ccccc12 [Bisantrene] | 299 ± 91 | (3) | 119 ± 47 | – | – | – | – | – | –
COc1cc2cc(c1Cl)N(C)C(=O)C[C@H](OC(=O)[C@H](C)N(C)C(C)=O)[C@]1(C)O[C@H]1[C@H](C)[C@@H]1C[C@@](O)(NC(=O)O1)[C@H](OC)/C=C/C=C(\C)C2 [Maytansine] | 0.84 ± 0.19 | (14) | 0.06 | – | – | – | – | – | –
CC[C@@]1(O)C(=O)OCc2c1cc1n(c2=O)Cc2cc3ccccc3nc2-1 [Camptothecin, camptothecin] | 335 ± 157 | (23) | 14.9 ± 6.11 | – | – | – | – | – | –
C=C(C)[C@@H]1NC(=O)[C@@H](NC)[C@@H](O)c2cc(Cl)c(O)c(c2)O[C@](C)(CC)[C@@H](C(=O)N2CC=C[C@H]2C(=O)N/C(C(=O)N/C(=C/C(=O)O)C(=O)O)=C(\C)CC)NC1=O [Phomopsin A] | – | (5) | – | – | – | – | – | – | IC50 (KB-HTI-4.0; [3]): 3530 ± 2990 nM; IC50 (KB-3-1; [4]): 671 ± 55 nM
CO[C@@H](/C(C)=C/C=C/C(C)=C/c1coc(C)n1)[C@@H](C)[C@@H]1C[C@H](O)[C@@]2(C)O[C@@H]2/C=C/[C@@H](C)[C@H]2C[C@H](CC(=O)O2)C[C@@H]2O[C@H]2C(=O)O1 [Rhizoxin] | 98.4 ± 37.6 | (11) | – | – | – | – | – | – | IC50 (KB-3-1; Homo sapiens, KB 3-1, KB-3-1 parental, Table 8, read-out: KB-3-1 IC50): 9.13 ± 2.17 nM
CC[C@@]1(O)C(=O)OCc2c1cc1n(c2=O)Cc2cc3c(CN(C)C)c(O)ccc3nc2-1 [Topotecan, topotecan] | 1030 ± 541 | (57) | 18.1 ± 2.98 | – | – | – | – | – | –
CO[C@]12C=C[C@](C)(O1)[C@@H](OC(=O)/C=C/c1cn(C)cn1)C[C@H]1C(C)=CC[C@H](C(C)C)[C@H]1/C=C\2CO[C@@H]1OC[C@@H](O)[C@@H](O)[C@@H]1OC(C)=O [Eleutherobin] | – | – | – | – | – | – | – | – | (RR) relative resistance vs. parental cells (KB-HTI-4.0): (1); IC50 (KB-HTI-4.0; Homo sapiens, KB 3-1, read-out: KB-HTI-4.0 IC50, nM): 21.3 ± 4.4 nM; IC50 (KB-3-1; Homo sapiens, KB 3-1, read-out: KB-3-1 IC50, nM): 17.4 ± 1.63 nM
COC1=CC(=O)N(C(=O)[C@@H](OC(=O)[C@@H]2CCCN2C(=O)[C@@H]2CCCN2C(=O)[C@H](C(C)C)N(C)C(=O)[C@@H](NC(=O)[C@H](C(C)C)N(C)C)C(C)C)C(C)C)[C@H]1Cc1ccccc1 [Dolastatin −15] (NMe2Val-V[NMeV]PP-X1) | – | (12) | – | – | – | – | – | – | IC50 (KB-HTI-4.0; [3]): 0.49 ± 0.14 nM; IC50 (KB-3-1; [4]): 0.04 ± 0.05 nM
dolastatin | – | – | – | – | – | – | – | – | resistance of KB-3-1-derived cell lines selected with Example 129 (KB-HTI-4.0; vs KB-3-1): 28 fold
CCOC(=O)/C(C)=C/[C@H](C(C)C)N(C)C(=O)[C@@H](NC(=O)[C@H](NC)C(C)(C)c1ccccc1)C(C)(C)C [Example 135, Ethyl (E,4S)-4-[((2S)-3,3-dimethyl-2-{[(2R)-3-methyl-2-(methylamino)-3-phenylbutanoyl]amino}butanoyl)(methyl)amino]-2,5-dimethyl-2-hexenoate] | – | – | – | 2.3 | 2090 | 909 | 2.9 | 2640 | –
CN[C@H](C(=O)N[C@H](C(=O)N(C)[C@H](/C=C(\C)C(=O)O)C(C)C)C(C)(C)C)C(C)(C)c1cccc(-c2ccccc2)c1 [Example 39, 3-phenyl-N,β,β-trimethyl-L-phenylalanyl-N^1-[(1S,2E)-3-carboxy-1-isopropylbut-2-enyl]-N^1,3-dimethyl-L-valinamide] | – | – | – | 2.8 | 5.4 | 1.9 | 78.4 | 149 | –
CCCC/C(=C\[C@@H](NC(=O)[C@@H](NC(=O)[C@@H](NC)C(C)(C)c1ccccc1)C(C)(C)C)C(C)C)C(=O)O [Example 77, (E,4S)-2-Butyl-4-[((2S)-3,3-dimethyl-2-{[(2S)-3-methyl-2-(methylamino)-3-phenylbutanoyl]amino}butanoyl)amino]-5-methyl-2-hexenoic Acid] | – | – | – | 3.0 | 1740 | 575 | 5.2 | ≥ 3000 | –
CN[C@H](C(=O)N[C@H](C(=O)N(C)[C@H](/C=C(\C)C(=O)O)C(C)C)C(C)(C)C)[C@H](C)c1ccccc1 [Example 154, (βR)-N,β-dimethyl-L-phenylalanyl-N^1-[(1S,2E)-3-carboxy-1-isopropylbut-2-enyl]-N^1,3-dimethyl-L-valinamide] | – | – | – | 1.3 | 584 | 438 | 6.8 | > 3000 | –
CN[C@H](C(=O)N[C@H](C(=O)N[C@H](/C=C(\C)C(=O)O)C(C)C)C(C)(C)C)C(C)(C)c1ccccc1.O=C(O)C(F)(F)F [Example 101, N,β,β-trimethyl-L-phenylalanyl-N^1-[(1S,2E)-3-carboxy-1-isopropylbut-2-enyl]-3-methyl-L-valinamide Trifluoroacetic Acid] | – | – | – | 3.2 | 139 | 43.1 | 69.6 | ≥ 3000 | –
CC(C)C[C@H](N)C(=O)N[C@H](C(=O)N[C@H](CC(C)C(=O)O)C(C)C)C(C)(C)C (stereo partly drawn) [Example 138, (4R)4-[((2S)-2-{[(2S)-2-amino4-methylpentanoyl]amino}-3,3-dimethylbutanoyl)amino]-2,5-dimethylhexanoic Acid] | – | – | – | – | 1510 | – | – | ≥ 3000 | Ratio KB85/KB (KB-8-5 (MDR1+); ratio of IC50 in KB85 to IC50 in KB-3-1): 2.2; IC50 (KB-3-1; Homo sapiens, KB-3-1 cells (paclitaxel-sensitive parent), read-out: In vitro IC50 (nM) KB-3-1): 692 nM; Ratio KBV1/KB (KB-V1 (MDR1++); ratio of IC50 in KBV1 to IC50 in KB-3-1): 4.3
